# Laboratory results taken from patent US20060281817A1, “Treatment for neurodegenerative diseases” (priority 2005, published 2006).
# How the values were obtained:
# [1] = tested on: MN9D cells expressing human A53T alpha-synuclein mutant; experiment: Cell death (propidium iodide, flow cytometry), cells expressing mutated alpha synuclein; type: cell-based; conditions: Mutated alpha synuclein construct
# Description: (§1) Parkinson's disease (PD) is characterized by the presence of aggregates (Lewy bodies) composed of alpha-synculein and other cellular proteins within neurons. (Paleologou; Gandhi) These aggregates are believed to be a critical factor in the death of the neuron and in the etiology of PD (Paleologou; Schrag). Mutated alpha-synuclein, as observed in those individuals with familial PD caused by synculein mutations, causes increased aggregate formation (Paleologou). A cell culture model is used to study alpha-synuclein aggregate formation in vitro. This model was created by using molecular biological techniques to transfect a dopaminergic cell line with DNA constructs that, when expressed, generate large amounts of normal alpha-synuclein (over-expressed) or mutated human alpha synuclein within the cells essentially as described by Perez et al (Perez). […] These cells were then treated with Difluoromethylornithine (DFMO) to test the ability of this agent to reduce cell death.
# (§2) Compared to control cells, treatment with DFMO (100-500 uM) increased survival in cells over-expressing alpha synuclein and in cells expressing mutated alpha synuclein by up to 54%.
# [2] = tested on: MN9D cells over-expressing human alpha synuclein (wild type); experiment: Cell death (propidium iodide, flow cytometry), cells over-expressing alpha synuclein; type: cell-based
# Description: as §1, §2
# [3] = tested on: Huntington's disease (HD) mice; experiment: Rotorod motor function test in HD mice; type: in vivo; conditions: treated HD mice vs untreated HD mice, day 93 and day 105 after birth
# Method: This example was carried out as schematically illustrated in FIG. 1.
# [4] = tested on: MN9D cells, vector only (control cells); experiment: Cell death (propidium iodide, flow cytometry), cells with empty vector; type: cell-based; conditions: Vector only construct
# Description: as §1, §2
# [5] = represents % cells rescued by DFMO, 100 um
structure (smiles),measurement,setting,value
"NCCC[C@](N)(C(=O)O)C(F)F [DFMO, Alpha-difluoromethylornithine]",% rescue compared to vector control for DFMO treated cells,[1],40%
same,% Dead Cells (DFMO),[1]; DFMO-treated,38.1%
same,Reduction in % dead cells with DFMO (100 uM),[1]; [5],13.5%
same,% rescue compared to vector control for DFMO treated cells,[2]; Alpha-synuclein construct,54%
same,% Dead Cells (DFMO),"[2]; Alpha-synuclein construct, DFMO-treated",29.8%
same,% Dead Cells minus % DFMO-treated cells (100 um),"[2]; Alpha-synuclein construct, represents % cells rescued by DFMO, 100 um",15%
same,Increased survival compared to control cells,"[2]; DFMO 100-500 uM, cells over-expressing alpha synuclein and cells expressing mutated alpha synuclein",up to 54%
same,Rotorod motor function,[3],better
same,% Dead Cells (DFMO),[4]; DFMO-treated,30.2%
same,Reduction in % dead cells with DFMO,[4]; [5],9.6%
